Measured values from US20220340579A1, “PYRAZOLYL BICYCLIC AMINES AS CDK2 INHIBITORS” (Incyte Corporation, priority 2021, published 2022).

Biological target: T1, CDK2/Cyclin E1 (Homo sapiens, UniProt P24941)
T1 construct: enzyme activity assays utilize full-length human CDK2; GST (N); purchased Carna 04-165; host or cells: baculovirus expression system
Assay: CDK2/Cyclin E1 HTRF enzyme activity assay
Type: biochemical
Details: 1 mM ATP
Description: Example A. CDK2/Cyclin E1 HTRF Enzyme Activity Assay
CDK2/Cyclin E1 enzyme activity assays utilize full-length human CDK2 co-expressed as N-terminal GST-tagged protein with FLAG-Cyclin E1 in a baculovirus expression system (Carna Product Number 04-165). Assays were conducted in white 384-well polystyrene plates in a final reaction volume of 8 μL. CDK2/Cyclin E1 (0.25 nM) was incubated with the compounds of the Examples (40 nL serially diluted in DMSO) in the presence of ATP (50 μM or 1 mM) and 50 nM ULight™-labeled eIF4E-binding protein 1 (THR37/46) peptide (PerkinElmer) in assay buffer (containing 50 mM HEPES pH 7.5, 1 mM EGTA, 10 mM MgCl2, 2 mM DTT, 0.05 mg/mL BSA, and 0.01% Tween 20) for 60 minutes at room temperature. The reactions were stopped by the addition of EDTA and Europium-labeled anti-phospho-4E-BP1 antibody (PerkinElmer), for a final concentration of 15 mM and 1.5 nM, respectively. HTRF signals were read after 1 hour at room temperature on a PHERAstar FS plate reader (BMG Labtech). Data was analyzed with IDBS XLFit and GraphPad Prism 5.0 software using a three or four parameter dose response curve to determine IC50 for each compound.

Compound | IC50 [nM]
C[C@@H]1CN(S(C)(=O)=O)CC[C@@H]1Nc1nc2c(OC3CCC3)c(-c3cn[nH]c3)ncn2n1 [Example 1, 8-Cyclobutoxy-N-((3R,4S)-3-methyl-1-(methylsulfonyl)piperidin-4-yl)-7-(1H-pyrazol-4-yl)-[1,2,4]triazolo[1,5-c]pyrimidin-2-amine] | ≤ 10
C[C@@H]1CN(S(C)(=O)=O)CC[C@@H]1Nc1nc2c(OCC(F)(F)F)c(-c3cn[nH]c3)ncn2n1 [Example 2, N-((3R,4S)-3-Methyl-1-(methylsulfonyl)piperidin-4-yl)-7-(1H-pyrazol-4-yl)-8-(2,2,2-trifluoroethoxy)-[1,2,4]triazolo[1,5-c]pyrimidin-2-amine] | ≤ 10
C[C@@H]1CN(S(C)(=O)=O)CC[C@@H]1Nc1nc2cnc(-c3cn[nH]c3)c(OCC(F)(F)F)n2n1 [Example 3, N-((3R,4S)-3-Methyl-1-(methylsulfonyl)piperidin-4-yl)-6-(1H-pyrazol-4-yl)-5-(2,2,2-trifluoroethoxy)-[1,2,4]triazolo[1,5-a]pyrazin-2-amine] | ≤ 10
